Source: ChEMBL document CHEMBL1154407, “Tick acquisition of Ehrlichia canis from dogs treated with doxycycline hyclate” (Antimicrob Agents Chemother, 2007)
Active and inactive are the calls of the source.

Tests used:
Format in all cases: functional, organism-based
Design in all cases: dose 10 mg/kg
Ehrlichia canis [1] = assay: Antimicrobial activity against Ehrlichia canis infected in Beagle dog AUF at 10 mg/kg, po once daily for 14 days measured 104 days post-tick attachment after drug administration by PCR
Ehrlichia canis [2] = assay: Antimicrobial activity against Ehrlichia canis infected in Beagle dog AIP with brown dog tick assessed as infected ticks at 10 mg/kg, po once daily for 14 days measured 7 days post-tick attachment after drug administration by PCR
Ehrlichia canis [3] = assay: Antimicrobial activity against Ehrlichia canis infected in Beagle dog AIP at 10 mg/kg, po once daily for 14 days measured 83 days post-tick attachment after drug administration by PCR
Ehrlichia canis [4] = assay: Antimicrobial activity against Ehrlichia canis infected in Beagle dog AHG at 10 mg/kg, po once daily for 14 days measured 76 days post-tick attachment after drug administration by PCR
Ehrlichia canis [5] = assay: Antimicrobial activity against Ehrlichia canis infected in Beagle dog AHK at 10 mg/kg, po once daily for 14 days measured 55 days post-tick attachment after drug administration by PCR

Measured: Activity

C[C@H]1c2cccc(O)c2C(=O)C2=C(O)[C@]3(O)C(=O)C(C(N)=O)=C(O)[C@@H](N(C)C)[C@@H]3[C@@H](O)[C@@H]21
inactive: all assays above
